Read-outs that look alike come from different tables or passages of the source.
Columns and labels:
E. coli = assay type: cell-based; details: for Peptide MIC values: agarose dilution
S. epidermidis = assay type: cell-based; details: S. epidermidis SE001
S. marcescens = assay type: cell-based
bacterial isolates = experiment: microbe, parasite or virus in culture; assay type: cell-based
[1] = system: MSSA (Smith, ATCC # 19640); experiment: In vivo efficacy, MSSA infection; design: species or system S. aureus; details: formulation D; for % Survival: 60 min post-infection, end of eight day observation

ILKKWPWWPWRRK [MBI 11CN] was tested, and the MIC (E. coli; E. coli ECO002) was 8 µg/mL, the “Peptide MIC values” (E. coli; E. coli ATCC 25922) was 16 µg/mL and the “Peptide MIC values” (E. coli; E. coli NCTC 10418) was 4 µg/mL. It also gave an MIC (S. epidermidis) of 2 µg/mL, an MIC (S. marcescens; S. marcescens SBSM1) of over 128 µg/mL and an MIC (S. marcescens; S. marcescens SMS003) of over 128 µg/mL. The “Peptide MIC values” (S. marcescens; agarose dilution, S. marcescens SM82) was over 128 µg/mL, the “Peptide MIC + Tobramycin” value (bacterial isolates; A. baumannii ABI001) was 16 µg/mL and the “Tobramycin MIC + Peptide” value (bacterial isolates; A. baumannii ABI001) was 4 µg/mL. The “Peptide MIC Alone” value (bacterial isolates; A. baumannii ABI001, Tobramycin section) was 64 µg/mL, the “Peptide MIC + Tobramycin” value (bacterial isolates; E. coli ECO006) was 0.25 µg/mL and the “Tobramycin MIC + Peptide” value (bacterial isolates; E. coli ECO006) was 4 µg/mL. For the same sequence, the “Peptide MIC Alone” value (bacterial isolates; E. coli ECO006, Tobramycin section) was 8 µg/mL, the “Peptide MIC + Piperacillin” value (bacterial isolates; P. aeruginosa 22) was 32 µg/mL and the “Piperacillin MIC + Peptide” value (bacterial isolates; P. aeruginosa 22) was 4 µg/mL. The “Peptide MIC Alone” value (bacterial isolates; P. aeruginosa 22, Piperacillin section) was 64 µg/mL, the “Peptide MIC + Piperacillin” value (bacterial isolates; P. aeruginosa 23) was 4 µg/mL and the “Piperacillin MIC + Peptide” value (bacterial isolates; P. aeruginosa 23) was 64 µg/mL. For the same sequence, the “Peptide MIC Alone” value (bacterial isolates; P. aeruginosa 23, Piperacillin section) was 128 µg/mL, the “Peptide MIC + Tobramycin” value (bacterial isolates; P. aeruginosa PA032) was 4 µg/mL and the “Tobramycin MIC + Peptide” value (bacterial isolates; P. aeruginosa PA032) was 8 µg/mL. For the same sequence, the “Peptide MIC Alone” value (bacterial isolates; P. aeruginosa PA032, Tobramycin section) was over 128 µg/mL, the “Peptide MIC + Piperacillin” value (bacterial isolates; S. aureus 18 MRSA) was 16 µg/mL and the “Piperacillin MIC + Peptide” value (bacterial isolates; S. aureus 18 MRSA) was 0.5 µg/mL. The “Peptide MIC Alone” value (bacterial isolates; S. aureus 18 MRSA, Piperacillin section) was 32 µg/mL, the “Peptide MIC + Piperacillin” value (bacterial isolates; S. aureus 19 MRSA) was 1 µg/mL and the “Piperacillin MIC + Peptide” value (bacterial isolates; S. aureus 19 MRSA) was 64 µg/mL. The “Peptide MIC Alone” value (bacterial isolates; S. aureus 19 MRSA, Piperacillin section) was 8 µg/mL, the “Peptide MIC + Tobramycin” value (bacterial isolates; S. maltophilia SMA029) was 2 µg/mL and the “Tobramycin MIC + Peptide” value (bacterial isolates; S. maltophilia SMA029) was 64 µg/mL. The “Peptide MIC Alone” value (bacterial isolates; S. maltophilia SMA029, Tobramycin section) was over 128 µg/mL, the “Peptide MIC + Tobramycin” value (bacterial isolates; S. maltophilia SMA035) was 32 µg/mL and the “Tobramycin MIC + Peptide” value (bacterial isolates; S. maltophilia SMA035) was 4 µg/mL. For the same sequence, the “Peptide MIC Alone” value (bacterial isolates; S. maltophilia SMA035, Tobramycin section) was 128 µg/mL, the FIC (bacterial isolates; peptide + Piperacillin, P. aeruginosa 22) was 0.52 and the FIC (bacterial isolates; peptide + Piperacillin, P. aeruginosa 23) was 0.53. The FIC (bacterial isolates; peptide + Piperacillin, S. aureus 18 MRSA) was 0.50, the FIC (bacterial isolates; peptide + Piperacillin, S. aureus 19 MRSA) was 0.38 and the FIC (bacterial isolates; peptide + Tobramycin, A. baumannii ABI001) was 0.50. The FIC (bacterial isolates; peptide + Tobramycin, E. coli ECO006) was 0.53, the FIC (bacterial isolates; peptide + Tobramycin, P. aeruginosa PA032) was 0.52 and the FIC (bacterial isolates; peptide + Tobramycin, S. maltophilia SMA029) was 0.51. For the same sequence, the FIC (bacterial isolates; peptide + Tobramycin, S. maltophilia SMA035) was 0.38, the “% Survival” value ([1]; 12 mg/kg ip) was 0% and the “% Survival” value ([1]; 24 mg/kg ip) was 50%. The “mice rescued from MSSA infection” value ([1]; mice, ip 60 min post-infection, 35.7 mg/kg) was 100% and the activity ([1]; mice, ip, dose levels lower than 35.7 mg/kg) was “little or no activity”.

From US20020035061A1, “COMPOSITIONS AND METHODS FOR TREATING INFECTIONS USING CATIONIC PEPTIDES ALONE OR IN COMBINATION WITH ANTIBIOTICS” (priority 1996, published 2002)
